Measured values published in PMC10464103, “Antibacterial peptide PMAP-37(F34-R), expressed in Pichia pastoris, is effective against pathogenic bacteria and preserves plums” (Microbial Cell Factories, 2023).
Peptide text beside a SMILES is read from it.

Experiments:
[1] = set-up: method as in PMID 31858653; details: compared with antibiotic; cited from earlier work
[2] = test system: S. aureus, Listeria monocytogenes, B. subtilis, Salmonella typhimurium, E. coli O157, E. coli; test: Inhibition zone method; assay type: cell-based; details: inhibition zone in LB agar; three Gram-positive and three Gram-negative bacteria; positive control 50 µg/mL gentamicin
Protocol: (§1) The inhibition zone method was performed as described in a previous study with slight modifications. Fifty microliters of the bacterial solution was mixed with 15 mL lysogeny broth, and the inhibition zone of the six bacteria was determined by drilling after coagulation. The stability of PMAP-37(F34-R) against S. aureus was determined using the inhibition zone method. 4 µg/mL PMAP-37(F-34R) was dissolved in buffers with different pH (2, 4, 6, 8, and 10), different proteases (papain, pepsin, trypsin, and protease K), and different temperatures (4, 25, 37, 65, and 90 °C). The stability profiles under various pH, proteases, and temperatures were determined. Untreated buffer was used as a negative control.

[3] = test system: S. aureus; test: Total nucleotide leakage; assay type: cell-based; details: within 30 min after treatment; 37 °C, PBS; OD 260 nm of supernatant
Protocol: The total nucleotide leakage experiment was performed according to a previously reported method with slight modifications. S. aureus was collected, washed twice, and resuspended in PBS to an OD600 of 0.8. Antimicrobial peptides were added and incubated at 37 °C for various durations. The bacterial solution was centrifuged to remove S. aureus. The OD of the supernatant was recorded at a wavelength of 260 nm.

[4] = test system: S. aureus; test: Membrane permeability, PI staining; assay type: cell-based; details: 37 °C, 30 min with peptide, then PI; fluorescence microscope
Protocol: The permeability assay was performed as previously described with slight modifications. S. aureus was until the OD600 reached 0.3–0.6, washed three times with PBS, and resuspended to 1 × 10^8 CFU/mL. The bacteria (100 µL) were mixed with 50 µL of antimicrobial peptide and incubated at 37 °C for 30 min, with PBS as a control. The supernatant was centrifuged and discarded, the bacteria were resuspended with PI-diluted dye, and stained at 37 °C for 30 min. After washing three times with PBS, the unbound stain was removed, and 10 µL of PBS was taken; an appropriate amount of […] was added onto the slide, the cover glass was observed by fluorescence microscope.

[5] = test system: S. aureus; test: Stability at different temperatures and pH, read out by inhibition zone; assay type: physicochemical; details: 4 µg/mL peptide, antibacterial activity against S. aureus by inhibition zone
Protocol: as §1

SMILES: CC[C@H](C)[C@H](NC(=O)[C@H](CCCNC(=N)N)NC(=O)[C@H](CCC(=O)O)NC(=O)[C@@H](NC(=O)[C@H](CCCCN)NC(=O)[C@H](CCC(=O)O)NC(=O)CNC(=O)[C@H](CC(C)C)NC(=O)[C@H](CCCNC(=N)N)NC(=O)[C@H](CCCNC(=N)N)NC(=O)CNC(=O)[C@H](CCCNC(=N)N)NC(=O)[C@H](CC(=O)O)NC(=O)[C@H](CO)NC(=O)[C@H](CC(C)C)NC(=O)[C@H](Cc1ccccc1)NC(=O)[C@H](CC(=O)O)NC(=O)[C@H](CCCNC(=N)N)NC(=O)[C@H](CC(C)C)NC(=O)[C@H](CCCNC(=N)N)NC(=O)[C@H](CO)NC(=O)[C@H](CC(C)C)NC(=O)[C@H](CC(C)C)NC(=O)CN)[C@@H](C)CC)C(=O)NCC(=O)N[C@@H](CCC(N)=O)C(=O)N[C@@H](CCCCN)C(=O)N[C@H](C(=O)N[C@@H](CCCCN)C(=O)N[C@@H](CC(=O)O)C(=O)N[C@@H](CC(C)C)C(=O)N[C@@H](CO)C(=O)N[C@@H](CCC(=O)O)C(=O)N[C@@H](CCCNC(=N)N)C(=O)N[C@@H](Cc1ccccc1)C(=O)N[C@@H](CCC(N)=O)C(=O)N[C@@H](CO)C(=O)O)[C@@H](C)CC [PMAP-37(F34-R)] (H-GLLSRLRDFLSDRGRRLGEKIERIGQKIKDLSERFQS-OH; N-terminus and C-terminus assumed)
- efficacy in animal experiments [1]: comparable to that of ceftifol sodium
- inhibitory effect (inhibition zone) [2]: inhibited all six bacteria tested
- nucleotide leakage [3]: increased significantly
- PI staining (membrane integrity) [4]: extensive cell death
- stability at other temperatures ([5]; 4, 25, 37, 65 °C): maintained good stability
- stability at high temperature ([5]; 90 °C): partially affected
- stability at other pH ([5]; pH 2, 4, 6, 8 buffers): maintained good stability
- stability in strong base ([5]; pH = 10 buffer): partially affected
